Columns and labels:
Assay in all cases: relative viability (nuclei count vs DMSO), 5 days (fraction); higher = more cells survive
kb NB 142-70 + OSI-027 = compound: C1CSC2=C(C(=O)N1)SC3=C2C=C(C=C3)O [kb NB 142-70] + COc1cccc2cc(-c3nc([C@H]4CC[C@H](C(=O)O)CC4)n4ncnc(N)c34)[nH]c12 [OSI-027] (partner 0.5 µM)
Method in brief: (§1)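 Values are medians from duplicate plates. Each reflects relative viability, defined as the nuclei count of treated wells over that of vehicle wells. Lung cancer cell lines in 1536-well plates were pin-tool dosed one day after seeding with one drug alone or with a fixed anchor-drug dose plus five library-drug doses (not always all listed) in √10 steps, then fixed, stained and imaged at 4× after 5 days.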

[1] = compound: NCC(=O)Nc1ccc(-n2nc(C(F)(F)F)cc2-c2ccc3c(ccc4ccccc43)c2)cc1 + CC(=O)Nc1cccc(-n2c(=O)n(C3CC3)c(=O)c3c(Nc4ccc(I)cc4F)n(C)c(=O)c(C)c32)c1 [Trametinib] (partner 0.02 µM)
Method in brief: as §1

[2] = compound: C1CSC2=C(C(=O)N1)SC3=C2C=C(C=C3)O [kb NB 142-70] + CS(=O)(=O)N1CCN(Cc2cc3nc(-c4cccc5[nH]ncc45)nc(N4CCOCC4)c3s2)CC1 [Pictilisib] (partner 1 µM)
Method in brief: as §1

[3] = compound: NCC(=O)Nc1ccc(-n2nc(C(F)(F)F)cc2-c2ccc3c(ccc4ccccc43)c2)cc1 + Nc1nc2[nH]cc(CCc3ccc(C(=O)N[C@@H](CCC(=O)O)C(=O)O)cc3)c2c(=O)[nH]1 [Pemetrexed] (partner 0.2 µM)
Method in brief: as §1

UMC-11
relative viability (kb NB 142-70 + OSI-027; first compound 0.1 µM): 0.463
relative viability (kb NB 142-70 + OSI-027; first compound 1 µM): 0.468
relative viability (kb NB 142-70 + OSI-027; first compound 3.162 µM): 0.298
relative viability ([1]; first compound 0.02 µM): 0.645
relative viability ([1]; first compound 0.06325 µM): 0.85
relative viability ([1]; first compound 0.2 µM): 0.751
relative viability ([1]; first compound 0.6325 µM): 0.773
relative viability ([1]; first compound 2 µM): 0.747
relative viability ([2]; first compound 0.1 µM): 0.83
relative viability ([2]; first compound 1 µM): 0.719
relative viability ([2]; first compound 3.162 µM): 0.44
relative viability ([3]; first compound 0.02 µM): 0.835
relative viability ([3]; first compound 0.06325 µM): 0.699
relative viability ([3]; first compound 0.2 µM): 0.905
relative viability ([3]; first compound 0.6325 µM): 0.853
relative viability ([3]; first compound 2 µM): 0.759
